The record followed here is PMC12320230, “BAY11-7082 Targets RNF25 to Reverse TRIP4 Ubiquitination-dependent NF-κB Activation and Apoptosis Resistance in Renal Cell Carcinoma” (International Journal of Biological Sciences, 2025).

In this assay the target is T1, RNF25 (Homo sapiens, UniProt Q96BH1).
T1 construct: His-RNF25 used in ubiquitination assay
T1 sequence (Q96BH1 1-459): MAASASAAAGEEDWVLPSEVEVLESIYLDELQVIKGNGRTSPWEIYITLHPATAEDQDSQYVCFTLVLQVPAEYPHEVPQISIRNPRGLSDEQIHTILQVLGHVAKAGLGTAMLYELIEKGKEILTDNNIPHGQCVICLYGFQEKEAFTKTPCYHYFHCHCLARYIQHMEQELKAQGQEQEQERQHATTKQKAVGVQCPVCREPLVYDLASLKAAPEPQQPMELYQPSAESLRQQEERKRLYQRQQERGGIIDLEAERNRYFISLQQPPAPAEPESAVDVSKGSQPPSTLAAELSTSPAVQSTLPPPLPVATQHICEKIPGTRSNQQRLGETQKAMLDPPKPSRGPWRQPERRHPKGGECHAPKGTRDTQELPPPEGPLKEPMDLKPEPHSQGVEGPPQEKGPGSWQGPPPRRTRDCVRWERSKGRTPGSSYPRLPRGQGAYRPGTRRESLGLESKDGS
The assay is described as follows: isothermal titration calorimetry. Type of assay: binding.

As usually defined, the Kd is the equilibrium constant for the complex coming apart. A low value points to tighter binding.

The structures appear in SMILES notation.

`Cc1ccc(S(=O)(=O)/C=C/C#N)cc1` [BAY11-7082] yielded a Kd of 950 nM.
